Data set [1] has as its system HCV replicon (genotype 1b) in Huh7 cell line ET. The experiment in a line: microbe, parasite or virus in culture. Type of data set: cell-based, HCV genotype 1b. The following applies: Hepatitis C virus.
Data set [2] can be described thus: [3H]Thymidine incorporation assay (cell toxicity). Particulars: human.
The mark [3] stands for this setting: Huh-7, read-out: HCV-Replicon-(Luci-ET) 1b_IC50.
Where [4] appears, read: Huh-7, 96 h, read-out: HCV-Replicon (Luci-ET)-1b_IC50.

Each structure is given as a SMILES string. Like-named read-outs stand apart in the source and are kept apart here.

With `C[C@@H](CC(=O)N1CCN(C)CC1)N(c1cc(C#CC(C)(C)C)sc1C(=O)O)C(=O)[C@H]1CC[C@H](C)CC1` [Compound 110, 5-(3,3-Dimethylbut-1-ynyl)-3-[(trans-4-methylcyclohexanecarbonyl)-[(1S)-1-methyl-3-(4-methylpiperazin-1-yl)-3-oxo-propyl]amino]thiophene-2-carboxylic acid], the IC50 in data set [1] (setting [3]) was less than 0.1 µM. The molecule further had a half-maximal cytotoxic concentration (CC50) at 72 h in data set [2] of more than 100 µM.
The matching figures for `CCNC(=O)C[C@H](C)N(c1cc(C#CC(C)(C)C)sc1C(=O)O)C(=O)[C@H]1CC[C@H](C)CC1` [Compound 111, 5-(3,3-Dimethylbut-1-ynyl)-3-[[(1S)-3-(ethylamino)-1-methyl-3-oxo-propyl]-(trans-4-methylcyclohexanecarbonyl)amino]thiophene-2-carboxylic acid]: less than 0.1 µM and more than 100 µM.
The matching figures for `C[C@@H](CC(=O)N(C)C1CCN(C)CC1)N(c1cc(C#CC(C)(C)C)sc1C(=O)O)C(=O)[C@H]1CC[C@H](C)CC1` [Compound 113, 5-(3,3-Dimethylbut-1-ynyl)-3-[(trans-4-methylcyclohexanecarbonyl)-[(1S)-1-methyl-3-[methyl-(1-methyl-4-piperidyl)amino]-3-oxo-propyl]amino]thiophene-2-carboxylic acid]: less than 0.1 µM and more than 100 µM.
Take `COCCN(C)C(=O)C[C@H](C)N(c1cc(C#CC(C)(C)C)sc1C(=O)O)C(=O)[C@H]1CC[C@H](C)CC1` [Compound 114, 5-(3,3-Dimethylbut-1-ynyl)-3-[[(1S)-3-[2-methoxyethyl(methyl)amino]-1-methyl-3-oxo-propyl]-(trans-4-methylcyclohexanecarbonyl)amino]thiophene-2-carboxylic acid]: the IC50 in data set [1] (setting [3]) is less than 0.1 µM. The molecule also returned a CC50 at 72 h in data set [2] of more than 100 µM.
The matching figures for `COC1CCN(C(=O)C[C@H](C)N(c2cc(C#CC(C)(C)C)sc2C(=O)O)C(=O)[C@H]2CC[C@H](C)CC2)CC1` [Compound 115, 5-(3,3-Dimethylbut-1-ynyl)-3-[[(1S)-3-(4-methoxy-1-piperidyl)-1-methyl-3-oxo-propyl]-(trans-4-methylcyclohexanecarbonyl)amino]thiophene-2-carboxylic acid]: less than 0.1 µM and more than 100 µM.
On the same counts, the results for `COC1CN(C(=O)C[C@H](C)N(c2cc(C#CC(C)(C)C)sc2C(=O)O)C(=O)[C@H]2CC[C@H](C)CC2)C1` [Compound 116, 5-(3,3-Dimethylbut-1-ynyl)-3-[[(1S)-3-(3-methoxyazetidin-1-yl)-1-methyl-3-oxo-propyl]-(trans-4-methylcyclohexanecarbonyl)amino]thiophene-2-carboxylic acid] are less than 0.1 µM and more than 100 µM.
The matching figures for `CN1CCC[C@H](N(c2cc(C#CC(C)(C)C)sc2C(=O)O)C(=O)[C@H]2CC[C@H](C)CC2)C1=O` [Compound 117, 5-(3,3-dimethylbut-1-yn-1-yl)-3-(trans-4-methyl-N—((S)-1-methyl-2-oxopiperidin-3-yl)cyclohexanecarboxamido)thiophene-2-carboxylic acid]: less than 0.1 µM and more than 100 µM.
As to `C[C@H]1CC[C@H](C(=O)N(CC(=O)N2CCOCC2)c2cc(-c3ccccc3)sc2C(=O)O)CC1` [Compound 121, 3-[(trans-4-methylcyclohexanecarbonyl)-N-(2-morpholino-2-oxoethyl)amino]-5-phenylthiophene-2-carboxylic acid], in data set [1] (setting [4]), the IC50 is 1 to 10 µM. Further, in data set [2], the cytotoxic concentration (CC50) at 72 h was more than 100 µM.
Consider `CC[C@H](C(=O)N1CCOCC1)N(c1cc(C#CC(C)(C)C)sc1C(=O)O)C(=O)[C@H]1CC[C@H](C)CC1` [Compound 122, 5-(3,3-dimethylbut-1-ynyl)-3-[(trans-4-methylcyclohexanecarbonyl)-[(1R)-1-(morpholine-4-carbonyl)propyl]amino]thiophene-2-carboxylic acid], for which the IC50 in data set [1] (setting [4]) is less than 0.1 µM. The same molecule showed a half-maximal cytotoxic concentration (CC50) at 72 h in data set [2] of more than 100 µM.
On the same counts, the results for `CC(C)(C)C#Cc1cc(N(CC(=O)N2CCOCC2)C(=O)c2ccc(Cl)cc2)c(C(=O)O)s1` [Compound 123, 3-[(4-chlorobenzoyl)-(2-morpholino-2-oxo-ethyl)amino]-5-(3,3-dimethylbut-1-ynyl)thiophene-2-carboxylic acid] are less than 0.1 µM and more than 100 µM.
On the same counts, the results for `Cc1ccc(C(=O)N(CC(=O)N2CCOCC2)c2cc(C#CC(C)(C)C)sc2C(=O)O)cc1` [Compound 125, 5-(3,3-dimethylbut-1-ynyl)-3-[(4-methylbenzoyl)-(2-morpholino-2-oxo-ethyl)amino]thiophene-2-carboxylic acid] are 0.1 to 1 µM and more than 100 µM.
The matching figures for `CC[C@@H](C(=O)N1CCOCC1)N(c1cc(-c2ccccc2)sc1C(=O)O)C(=O)[C@H]1CC[C@H](C)CC1` [Compound 126, 3-[(trans-4-methylcyclohexanecarbonyl)-[(1S)-1-(morpholine-4-carbonyl)propyl]amino]-5-phenyl-thiophene-2-carboxylic acid]: 0.1 to 1 µM and more than 100 µM.
For the molecule `CC(C)(C)C#Cc1cc(N(CC(=O)N2CCSCC2)C(=O)[C@H]2CC[C@H](C)CC2)c(C(=O)O)s1` [Compound 127, 5-(3,3-dimethylbut-1-ynyl)-3-[(trans-4-methylcyclohexanecarbonyl)-(2-oxo-2-thiomorpholino-ethyl)amino]thiophene-2-carboxylic acid], the IC50 in data set [1] (setting [4]) was less than 0.1 µM. The CC50 at 72 h in data set [2] is 10 to 100 µM.
On the same counts, the results for `C[C@H]1CC[C@H](C(=O)N(CC(=O)N2CCOCC2)c2cc(C#CC3CC3)sc2C(=O)O)CC1` [Compound 128, 5-(2-cyclopropylethynyl)-3-[(trans-4-methylcyclohexanecarbonyl)-(2-morpholino-2-oxo-ethyl)amino]thiophene-2-carboxylic acid] are less than 0.1 µM and more than 100 µM.
The matching figures for `COC(C)(C)C#Cc1cc(N(CC(=O)N2CCOCC2)C(=O)[C@H]2CC[C@H](C)CC2)c(C(=O)O)s1` [Compound 129, 5-(3-methoxy-3-methyl-but-1-ynyl)-3-[(trans-4-methylcyclohexanecarbonyl)-(2-morpholino-2-oxo-ethyl)amino]thiophene-2-carboxylic acid]: 0.1 to 1 µM and more than 100 µM.
The matching figures for `CCC#Cc1cc(N(CC(=O)N2CCOCC2)C(=O)[C@H]2CC[C@H](C)CC2)c(C(=O)O)s1` [Compound 132, 5-But-1-ynyl-3-[(trans-4-methylcyclohexanecarbonyl)-(2-morpholino-2-oxo-ethyl)amino]thiophene-2-carboxylic acid]: 0.1 to 1 µM and more than 100 µM.
As for `CCN1CCCC[C@H](N(C(=O)c2ccc(Cl)cc2Cl)c2cc(C#CC(C)(C)C)sc2C(=O)O)C1=O` [Compound 135, (S)-5-(3,3-dimethylbut-1-ynyl)-3-[(2,4-dichlorobenzoyl)-N-(1-ethyl-2-oxoazepan-3-yl)amino]-thiophene-2-carboxylic acid], the IC50 in data set [1] (setting [4]) was less than 0.1 µM. The 50% cytotoxic concentration (CC50) at 72 h in data set [2] was more than 100 µM.
The matching figures for `CC(C)N1CC[C@@H](N(c2cc(C#CC(C)(C)C)sc2C(=O)O)C(=O)[C@H]2CC[C@H](C)CC2)C1=O` [Compound 141, 5-(3,3-dimethylbut-1-ynyl)-3-[[(3R)-1-isopropyl-2-oxo-pyrrolidin-3-yl]-(trans-4-methylcyclohexanecarbonyl)amino]thiophene-2-carboxylic acid]: less than 0.1 µM and more than 100 µM.
On the same counts, the results for `CC1(C#Cc2cc(N(CC(=O)N3CCOCC3)C(=O)[C@H]3CC[C@H](C)CC3)c(C(=O)O)s2)CC1` [Compound 144, 3-[(trans-4-methylcyclohexanecarbonyl)-(2-morpholino-2-oxo-ethyl)amino]-5-[2-(1-methylcyclopropyl)ethynyl]thiophene-2-carboxylic acid] are less than 0.1 µM and more than 100 µM.
On the same counts, the results for `CN(C)CCN1CCCC[C@H](N(c2cc(C#CC(C)(C)C)sc2C(=O)O)C(=O)[C@H]2CC[C@H](C)CC2)C1=O` [Compound 145, (S)-5-(3,3-Dimethylbut-1-ynyl)-3-((trans)-4-methyl-N-(1-(2-dimethylaminoethyl)-2-oxoazepan-3-yl)cyclohexanecarboxamido)thiophene-2-carboxylic acid] are less than 0.1 µM and 10 to 100 µM.
For `CN1CCOC[C@H](N(C(=O)c2ccc(Cl)cc2Cl)c2cc(C#CC(C)(C)C)sc2C(=O)O)C1=O` [Compound 147, (S)-5-(3,3-Dimethylbut-1-ynyl)-3-[(2,4-dichlorobenzoyl)-N-(4-methyl-5-oxo-1,4-oxazepan-6-yl)amino]thiophene-2-carboxylic acid], in data set [1] (setting [4]), the IC50 lay in the range of 0.1 to 1 µM. Besides, the CC50 at 72 h in data set [2] was more than 100 µM.
On the same counts, the results for `COCCN1CCC[C@H](N(c2cc(C#CC(C)(C)C)sc2C(=O)O)C(=O)[C@H]2CC[C@H](C)CC2)C1=O` [Compound 150, (S)-5-(3,3-Dimethylbut-1-ynyl)-3-((trans)-4-methyl-N-(1-(2-methoxyethyl)-2-oxopiperidin-3-yl)cyclohexanecarboxamido)thiophene-2-carboxylic acid] are less than 0.1 µM and more than 100 µM.
On the same counts, the results for `C[C@H]1CC[C@H](C(=O)N(CC(=O)N2CCOCC2)c2cc(-c3ccc(Oc4ccccc4)cc3)sc2C(=O)O)CC1` [Compound 151, 3-[(trans-4-methylcyclohexanecarbonyl)-(2-morpholino-2-oxo-ethyl)amino]-5-(4-phenoxyphenyl)thiophene-2-carboxylic acid] are 0.1 to 1 µM and 10 to 100 µM.
The matching figures for `O=C(O)c1sc(-c2ccc(Oc3ccccc3)cc2)cc1N(CC(=O)N1CCOCC1)C(=O)c1ccc(Cl)cc1Cl` [Compound 152, 3-[(2,4-dichlorobenzoyl)-(2-morpholino-2-oxo-ethyl)amino]-5-(4-phenoxyphenyl)thiophene-2-carboxylic acid]: 1 to 10 µM and 10 to 100 µM.

Source of the values: patent US20130190289A1, “COMPOUNDS AND METHODS FOR THE TREATMENT OR PREVENTION OF FLAVIVIRUS INFECTIONS” (priority 2010, published 2013).
